We go through two compounds from patent US20220040169A1, “Methods for the Administration of Certain VMAT2 Inhibitors” (Neurocrine Biosciences, Inc., priority 2019, published 2022).

Molecules are shown by their SMILES.

One data set in a line: Solubility in water. The data set is classed as physicochemical. The source says:
INGREZZA contains valbenazine, present as valbenazine ditosylate salt, with the chemical name, L-Valine, (2R,3R,11bR)-1,3,4,6,7,11b-hexahydro-9,10-dimethoxy-3-(2-methylpropyl)-2H-benzo[a]quinolizin-2-yl ester, 4-methylbenzenesulfonate (1:2). […] Its molecular formula is C38H54N2O10S2, and its molecular weight is 762.97/mol (ditosylate salt) with the following structure: […]

Data set [1] can be described thus: Phase 2 and 3 controlled studies and long-term treatment in adults with tardive dyskinesia: Parkinson-like adverse events. Type of data set: in vivo, human. The text has this:
In the Phase 2 and 3 controlled studies in adults with tardive dyskinesia (treatment up to 6 weeks), the incidence of Parkinson-like adverse events (AEs) was 3% (vs. <1% for placebo) and 4% during long-term treatment with valbenazine (up to 48 weeks).

Take `COc1cc2c(cc1OC)[C@H]1C[C@@H](OC(=O)[C@@H](N)C(C)C)[C@H](CC(C)C)CN1CC2` [Valbenazine ditosylate, L-Valine, (2R,3R,11bR)-1,3,4,6,7,11b-hexahydro-9,10-dimethoxy-3-(2-methylpropyl)-2H-benzo[a]quinolizin-2-yl ester, 4-methylbenzenesulfonate (1:2)]: the solubility in water entry in “Solubility in water” was “slightly soluble”.
For `COc1cc2c(cc1OC)[C@H]1C[C@@H](OC(=O)[C@@H](N)C(C)C)[C@H](CC(C)C)CN1CC2` [valbenazine, (S)-2-amino-3-methyl-butyric acid (2R, 3R,11bR)-3-isobutyl-9,10-dimethoxy-1,3,4,6,7,11b-hexahydro-2H-pyrido[2,1-a]isoquinolin-2-yl ester], the “serious Parkinson-like AEs” value in data set [1] (NBI clinical studies in tardive dyskinesia patients) is on record as “No serious Parkinson-like AEs were reported”. The “incidence of Parkinson-like adverse events (AEs)” value in data set [1] (Phase 2 and 3 controlled studies, adults with tardive dyskinesia, treatment up to 6 weeks, placebo <1%) was 3%. In addition, the “incidence of Parkinson-like adverse events (AEs) during long-term treatment” value in data set [1] (long-term treatment up to 48 weeks) stood at 4%.
